For experiment [1], the system named is BSA. In words: SWV specificity test against BSA (control). To be noted: 125 nM protein, negative control protein. The experiment is classed as binding. On the procedure: (§1) A conventional three-electrode system including an Au working electrode (diameter: 5 mm, surface area: 19.6 mm^2), a Pt counter electrode, and an Ag/AgCl reference electrode, was used for the electrochemical measurements. The EIS, CV, and SWV measurements were conducted in the presence of 2.5 mM ferro/ferricyanide in 1 M KNO3 using a CHI 660E instrument (CH Instruments, Austin, TX, USA) at 25 °C. The EIS measurements were carried out by applying a 10 mV signal with a frequency ranging from 0.01 Hz to 100 kHz. The CV tests were performed between − 0.6 and 0.6 V (scan range) at a scan rate of 100 mVs^−1. […]
(§2) The electrochemical response of the phage sensor for cathepsin B detection was evaluated by the specificity analysis of the developed phage. […] The relative binding affinity of the phage-on-a-sensor with different phage concentrations was measured. […] The binding constants of the developed phage sensor and the relative current change (ΔI%) with different cathepsin B concentrations were measured by SWV.
(§3) To select potential high-affinity peptides from the phage clones, the five synthetic peptides were immobilized on the Au electrode via streptavidin–biotin and MUA-EDC/NHS coupling methods. Each preparation step of the peptide sensor was recorded using CV, EIS, and SWV (Additional file 1: Fig. S3a–c), and the relative binding affinities for cathepsin B were measured by SWV. […]

The subject of experiment [2] is cathepsin S (CTSS). The experiment is described as follows: SWV specificity test against CTSS. It is filed as binding. The note with it: 125 nM protein. The protocol:
as §1, §2, §3

The test system of experiment [3] is cathepsin L1 (CTSL1). In words: SWV specificity test against CTSL1. The experiment is classed as binding. To be noted: 125 nM protein. On the procedure:
as §1, §2, §3

For experiment [4], the target named is T1, cathepsin B (Homo sapiens, UniProt P07858).
T1 construct: Cathepsin B proteins, purified from human liver (~ 27.5 kDa, > 95% purity); purchased ENZO (NY, USA); host or cells: purified from human liver
In words: SWV electrochemical binding to cathepsin B (relative current change, binding constant). The note with it: for relative binding affinity to cathepsin B (specificity): 125 nM protein, peptide 50 μM or phage ~10^12 PFU/mL immobilized.
Procedure: A conventional three-electrode system including an Au working electrode (diameter: 5 mm, surface area: 19.6 mm^2), a Pt counter electrode, and an Ag/AgCl reference electrode, was used for the electrochemical measurements. The EIS, CV, and SWV measurements were conducted in the presence of 2.5 mM ferro/ferricyanide in 1 M KNO3 using a CHI 660E instrument (CH Instruments, Austin, TX, USA) at 25 °C. The EIS measurements were carried out by applying a 10 mV signal with a frequency ranging from 0.01 Hz to 100 kHz. The CV tests were performed between − 0.6 and 0.6 V (scan range) at a scan rate of 100 mVs^−1. The SWV tests were carried out in the potential range of − 0.4 to 0.6 V with an amplitude of 5 mV, frequency of 10 Hz, and a scan interval of 4 mV. The relative current change (ΔI%) was obtained by considering that the peak current decreased after the immobilization of the peptides and/or phages and cathepsin B protein interaction using the following equation:1 ΔI%=I0-I/I0×100 where I0 refers to phage-on-a-sensor, peptide-on-a-sensor, or peptide-on-a-AuNPs/MXene sensor and/or peptide oxidation current before cathepsin B introduction, and I refers to Au-protein oxidation current after cathepsin B introduction.

For experiment [5], the target named is T1, cathepsin B. In words: ELISA binding of peptide-displaying phage clones to immobilized biotinylated cathepsin B. To be noted: 405 nm. The protocol: A 96 well streptavidin-coated microplate was washed three times with PBS, and the biotinylated cathepsin B was immobilized on it with mild shaking at 25 °C for 1 h. The unbound proteins were removed and blocked with a blocking buffer (5% BSA in NaHCO3) at 25 °C for 1 h. The wells were washed six times with 0.1% PBST, and 100 µL of the amplified phages (10^11 PFU/mL), i.e., the capture receptors, were added and incubated for 1 h at 25 °C. After washing six times with PBST again, the HRP-conjugated anti-M13 monoclonal antibodies (1:5000 dilution with blocking buffer), i.e., the detecting antibodies, were added and incubated at 25 °C for 1 h. The residual solution was discarded, and the microplate was washed again with the same buffer. Freshly prepared HRP substrate (ABTS) was added, and the absorbance was measured at 405 nm using a Multiskan FC microplate photometer (Thermo Scientific, Waltham, MA, USA).
The binding affinities of the selected phage clones for the immobilized cathepsin B were tested by ELISA. For these experiments, 250 nM of cathepsin B or the same amount of BSA as a negative control was immobilized on a well, followed by 10^11 PFU/mL of phage addition. The relative binding affinity of each phage was detected using HRP-conjugated M13 antibodies. […] The CTSB 4-1 clone was the only phage with a high binding affinity to cathepsin B, motivating further characterization of its binding interaction to confirm its specific binding to cathepsin B with increasing cathepsin B concentration (Fig. 2c).
(An ELISA detects its analyte on a solid surface through an enzyme-linked reagent.)

Take HRHRRHRHRKHHK - biotin [CTSB BP4]: in experiment [1], the “relative binding affinity to BSA (specificity)” value is “non-specific binding affinity”. Further, in experiment [2], the “relative binding affinity to CTSS (specificity)” value is given as “non-specific binding affinity”. The “relative binding affinity to CTSL1 (specificity)” value in experiment [3] is “non-specific binding affinity”. Also, the “relative binding affinity to cathepsin B (specificity)” value in experiment [4] was “much lower binding affinity for cathepsin B than for CTSB BP3”.
As for “WDMWPSMDWKAE [CTSB 4-1, M13 phage clone displaying …, identified in four rounds of the biopanning]”, the “relative binding affinity for cathepsin B (ELISA)” value in experiment [5] (250 nM cathepsin B immobilized, 10^11 PFU/mL phage, HRP-conjugated anti-M13 antibody, ABTS, 25 °C, 1 h, triplicate) was “strong cathepsin B binding”. For the same sequence, in experiment [5] (cathepsin B 3.906 to 250 nM, ELISA), the “dose response of binding with cathepsin B concentration” value is listed as “dose-dependent binding affinity with increasing cathepsin B concentration”. Also, the SC50 in experiment [5] (cathepsin B 6.25 to 250 nM, ELISA, printed in picture Fig. 2c) amounted to 44.27 nM.
Take WDMWPSMDWKAEK - biotin [CTSB BP1]: the “relative binding affinity for all the tested proteins, comparison between peptides” value in experiment [4] (125 nM cathepsin B, CTSS, CTSL1 or BSA, peptide 50 μM) was “comparable to those of CTSB BP2 and CTSB BP5”. Further, in experiment [4], the “relative binding affinity to cathepsin B (specificity)” value is given as “did not bind to cathepsin B”.

The values above are taken from article PMC10029155, “Harnessing protein sensing ability of electrochemical biosensors via a controlled peptide receptor–electrode interface” (Journal of Nanobiotechnology, 2023).
